Experimental data from patent US20260372303A1, “5-Fluoro-4-Imino-3-Methyl-1-Tosyl-3, 4-Dihydropyrimidin-2(1H) -One for Fungicide-Resistant Fungus” (priority 2022, published 2026).

Legend:
Assay type in all cases: in vivo
[1] = test system: Zymoseptoria tritici strain Zt 99; test: In planta preventive efficacy on wheat cv. Alixan against Zymoseptoria tritici strain Zt 99; conditions: for Disease Severity Intensity: % of length of 2nd leaf blade, preventive 24 h; for AUDPC: control 1352.9
Method: (§1) A series of experiments were conducted to evaluate the efficacy of flumetylsulforim (ADF-16) for treating different strains of Zymoseptoria tritici in comparison with commercially available fungicides. Table 1 describes the Z. tritici strains used in this study and Table 2 describes the fungicides used in this study.
(§2) Winter wheat plants cv. Alixan (Limagrain) at the BBCH 12 growth stage were treated preventively with sterile distilled water (control), ADF-16, penthiopyrad, metconazole or tebuconazole at the rates described in Table 2 with a hand sprayer at 2 bars.
(§3) After treatment, wheat plants were left to dry at room temperature for 1 hour and then placed in a climatic chamber: temperature of 24 °C day/18 °C night-photoperiod of 16 h light/8 h dark and a relative humidity of 65%.
(§4) Untreated or treated whole wheat plants were inoculated 24-hours post-treatment with a calibrated pycnospore suspension of Z. tritici strains Zt StA, Zt 61, Zt 99, Zt 20, Zt 19-52, and Zt 38-02. Three replicates (pots) of 6 wheat plants each were used for each condition tested.
(§5) After inoculation, pots were transferred in a climatic chamber: temperature of 20 °C day/17 °C night—photoperiod of 16 h light/8 h dark and controlled relative humidity.
(§6) Disease assessments were carried out at 15 days post inoculation (dpi), 21 dpi and 28 dpi by measuring the length of the necrosis on the second leaf blade. The intensity of infection was then determined as a percentage of the total length of 2nd leaf blade.
(§7) The fungicide efficacies were determined from the Area Under the Disease Progress Curve (AUDPC) values and expressed as a percentage of the untreated control.
(§8) The AUDPC is a quantitative measure of disease intensity over time. The most commonly used method for estimating the AUDPC, the trapezoidal method, is performed by multiplying the average disease intensity between each pair of adjacent timepoints by the corresponding time interval and this for each time interval. The AUDPC is determined with the following formula by adding all of the trapezoids:
(§9) [formula] • yi=disease severity at the ith observation • ti=time (days) at the ith observation • N=total number of observations

[2] = test system: Zymoseptoria tritici strain Zt 19-52; test: In planta preventive efficacy on wheat cv. Alixan against Zymoseptoria tritici strain Zt 19-52; conditions: % of length of 2nd leaf blade, preventive 24 h
Method: as §1, §2, §3, §4, §5, §6, §7, §8, §9

[3] = test system: Zymoseptoria tritici strain Zt 61; test: In planta preventive efficacy on wheat cv. Alixan against Zymoseptoria tritici strain Zt 61; set-up: fungicide efficacy: concentration or dose not given beside the values; conditions: for Disease Severity Intensity: % of length of 2nd leaf blade, preventive 24 h; for AUDPC: control 1194.9
Method: as §1, §2, §3, §4, §5, §6, §7, §8, §9

[4] = test system: Zymoseptoria tritici strain Zt 38-02; test: In planta preventive efficacy on wheat cv. Alixan against Zymoseptoria tritici strain Zt 38-02; conditions: for Disease Severity Intensity: % of length of 2nd leaf blade, preventive 24 h; for AUDPC: control 1261.4
Method: as §1, §2, §3, §4, §5, §6, §7, §8, §9

[5] = test system: Zymoseptoria tritici strain Zt StA; test: In planta preventive efficacy on wheat cv. Alixan against Zymoseptoria tritici strain Zt StA (control strain, sensitive); conditions: for Disease Severity Intensity: % of length of 2nd leaf blade, preventive 24 h; for AUDPC: control 781.6
Method: as §1, §2, §3, §4, §5, §6, §7, §8, §9

[6] = test system: Zymoseptoria tritici strain Zt 20; test: In planta preventive efficacy on wheat cv. Alixan against Zymoseptoria tritici strain Zt 20; conditions: % of length of 2nd leaf blade, preventive 24 h
Method: as §1, §2, §3, §4, §5, §6, §7, §8, §9

[7] = rate N (g a.i./ha): ADF-16 100, penthiopyrad 200, metconazole 90, tebuconazole 250
[8] = rate N/2.5 (g a.i./ha): ADF-16 40, penthiopyrad 80, metconazole 36, tebuconazole 100
[9] = 15 dpi, rate N (g a.i./ha): ADF-16 100, penthiopyrad 200, metconazole 90, tebuconazole 250, control also no disease
[10] = 15 dpi, rate N/2.5 (g a.i./ha): ADF-16 40, penthiopyrad 80, metconazole 36, tebuconazole 100, control also no disease

Question: Which “Disease Severity Intensity” value ([1]; 15 dpi, rate N (g a.i./ha): ADF-16 100, penthiopyrad 200, metconazole 90, tebuconazole 250, control 47.9) does the source give for `CC1(C)CCC(Cc2ccc(Cl)cc2)C1(O)Cn1cncn1` (centres unmarked) [Metconazole] here?
Answer: 0.0 +/− 0.0d %

Question: What about the “Disease Severity Intensity” value ([1]; 15 dpi, rate N/2.5 (g a.i./ha): ADF-16 40, penthiopyrad 80, metconazole 36, tebuconazole 100, control 47.9) of the same molecule?
Answer: 1.3 +/− 1.2d %

Question: What about the “Disease Severity Intensity” value ([1]; 21 dpi, rate N (g a.i./ha): ADF-16 100, penthiopyrad 200, metconazole 90, tebuconazole 250, control 81.0) of the same molecule?
Answer: 18.2 +/− 2.6d %

Question: And the “Disease Severity Intensity” value ([1]; 21 dpi, rate N/2.5 (g a.i./ha): ADF-16 40, penthiopyrad 80, metconazole 36, tebuconazole 100, control 81.0)?
Answer: 58.7 +/− 2.8c %

Question: And the “Disease Severity Intensity” value ([1]; 28 dpi, rate N (g a.i./ha): ADF-16 100, penthiopyrad 200, metconazole 90, tebuconazole 250, control 92.2)?
Answer: 86.3 +/− 2.4ab %

Question: What about the “Disease Severity Intensity” value ([1]; 28 dpi, rate N/2.5 (g a.i./ha): ADF-16 40, penthiopyrad 80, metconazole 36, tebuconazole 100, control 92.2) of the same molecule?
Answer: 84.6 +/− 4.3b %

Question: And the “Efficacy (from AUDPC, percentage of the untreated control)” value [1, 7]?
Answer: 69.0%

Question: And the AUDPC [1, 7]?
Answer: 419.9 +/− 29.6e

Question: And the “Efficacy (from AUDPC, percentage of the untreated control)” value [1, 8]?
Answer: 48.9%

Question: And the AUDPC [1, 8]?
Answer: 691.1 ± 28.1 days

Question: And the “Disease Severity Intensity” value ([2]; 15 dpi, rate N (g a.i./ha): ADF-16 100, penthiopyrad 200, metconazole 90, tebuconazole 250, control 22.0)?
Answer: 0.0 +/− 0.0b %

Question: And the “Disease Severity Intensity” value ([2]; 15 dpi, rate N/2.5 (g a.i./ha): ADF-16 40, penthiopyrad 80, metconazole 36, tebuconazole 100, control 22.0)?
Answer: 0.0 +/− 0.0b %

Question: And the “Disease Severity Intensity” value ([2]; 21 dpi, rate N (g a.i./ha): ADF-16 100, penthiopyrad 200, metconazole 90, tebuconazole 250, control 81.7)?
Answer: 0.3 +/− 0.2c %

Question: What about the “Disease Severity Intensity” value ([2]; 21 dpi, rate N/2.5 (g a.i./ha): ADF-16 40, penthiopyrad 80, metconazole 36, tebuconazole 100, control 81.7) of the same molecule?
Answer: 2.1 +/− 0.8b %

Question: What about the “Disease Severity Intensity” value ([2]; 28 dpi, rate N (g a.i./ha): ADF-16 100, penthiopyrad 200, metconazole 90, tebuconazole 250, control 91.0) of the same molecule?
Answer: 12.0 +/− 1.9c %

Question: And the “Disease Severity Intensity” value ([2]; 28 dpi, rate N/2.5 (g a.i./ha): ADF-16 40, penthiopyrad 80, metconazole 36, tebuconazole 100, control 91.0)?
Answer: 22.4 +/− 2.3b %

Question: And the “Disease Severity Intensity” value [3, 9]?
Answer: No disease

Question: And the “Disease Severity Intensity” value [3, 10]?
Answer: No disease

Question: What about the “Disease Severity Intensity” value ([3]; 21 dpi, rate N/2.5 (g a.i./ha): ADF-16 40, penthiopyrad 80, metconazole 36, tebuconazole 100, control 63.3) of the same molecule?
Answer: 10.1 +/− 1.6c %

Question: And the “Disease Severity Intensity” value ([3]; 28 dpi, rate N (g a.i./ha): ADF-16 100, penthiopyrad 200, metconazole 90, tebuconazole 250, control 88.1)?
Answer: 35.1 +/− 3.8d %

Question: What about the “Disease Severity Intensity” value ([3]; 28 dpi, rate N/2.5 (g a.i./ha): ADF-16 40, penthiopyrad 80, metconazole 36, tebuconazole 100, control 88.1) of the same molecule?
Answer: 65.6 +/− 4.2bc %

Question: And the fungicide efficacy ([3]; higher application rates (N))?
Answer: ≥ 85%

Question: What about the fungicide efficacy ([3]; lower application rates (N/2.5)) of the same molecule?
Answer: ≤ 70%

Question: What about the “Efficacy (from AUDPC, percentage of the untreated control)” value [3, 7] of the same molecule?
Answer: 85.9%

Question: And the AUDPC [3, 7]?
Answer: 168.8 +/− 45.4cd

Question: And the “Efficacy (from AUDPC, percentage of the untreated control)” value [3, 8]?
Answer: 68.9%

Question: And the AUDPC [3, 8]?
Answer: 371.8 +/− 48.7b

Question: What about the “Disease Severity Intensity” value ([4]; 15 dpi, rate N (g a.i./ha): ADF-16 100, penthiopyrad 200, metconazole 90, tebuconazole 250, control 36.0) of the same molecule?
Answer: 0.0 +/− 0.0b %

Question: What about the “Disease Severity Intensity” value ([4]; 15 dpi, rate N/2.5 (g a.i./ha): ADF-16 40, penthiopyrad 80, metconazole 36, tebuconazole 100, control 36.0) of the same molecule?
Answer: 1.7 +/− 0.9b %

Question: And the “Disease Severity Intensity” value ([4]; 21 dpi, rate N (g a.i./ha): ADF-16 100, penthiopyrad 200, metconazole 90, tebuconazole 250, control 84.3)?
Answer: 25.6 +/− 3.9d %

Question: And the “Disease Severity Intensity” value ([4]; 21 dpi, rate N/2.5 (g a.i./ha): ADF-16 40, penthiopyrad 80, metconazole 36, tebuconazole 100, control 84.3)?
Answer: 61.8 +/− 2.5bc %

Question: And the “Disease Severity Intensity” value ([4]; 28 dpi, rate N (g a.i./ha): ADF-16 100, penthiopyrad 200, metconazole 90, tebuconazole 250, control 95.7)?
Answer: 82.4 +/− 3.4c %

Question: And the “Disease Severity Intensity” value ([4]; 28 dpi, rate N/2.5 (g a.i./ha): ADF-16 40, penthiopyrad 80, metconazole 36, tebuconazole 100, control 95.7)?
Answer: 92.1 +/− 1.2b %

Question: What about the “Efficacy (from AUDPC, percentage of the untreated control)” value [4, 7] of the same molecule?
Answer: 64.0%

Question: And the AUDPC [4, 7]?
Answer: 454.7 +/− 29.0c

Question: And the “Efficacy (from AUDPC, percentage of the untreated control)” value [4, 8]?
Answer: 41.1%

Question: What about the AUDPC [4, 8] of the same molecule?
Answer: 743.0 +/− 14.9b

Question: What about the “Disease Severity Intensity” value [5, 9] of the same molecule?
Answer: No disease

Question: What about the “Disease Severity Intensity” value [5, 10] of the same molecule?
Answer: No disease

Question: And the “Disease Severity Intensity” value ([5]; 21 dpi, rate N (g a.i./ha): ADF-16 100, penthiopyrad 200, metconazole 90, tebuconazole 250, control 36.5)?
Answer: 0.0 +/− 0.0b %

Question: And the “Disease Severity Intensity” value ([5]; 21 dpi, rate N/2.5 (g a.i./ha): ADF-16 40, penthiopyrad 80, metconazole 36, tebuconazole 100, control 36.5)?
Answer: 0.0 +/− 0.0b %

Question: What about the “Disease Severity Intensity” value ([5]; 28 dpi, rate N (g a.i./ha): ADF-16 100, penthiopyrad 200, metconazole 90, tebuconazole 250, control 77.4) of the same molecule?
Answer: 0.0 +/− 0.0b %

Question: What about the “Disease Severity Intensity” value ([5]; 28 dpi, rate N/2.5 (g a.i./ha): ADF-16 40, penthiopyrad 80, metconazole 36, tebuconazole 100, control 77.4) of the same molecule?
Answer: 0.0 +/− 0.0b %

Question: And the “Efficacy (from AUDPC, percentage of the untreated control)” value [5, 7]?
Answer: 100%

Question: And the AUDPC [5, 7]?
Answer: 0.0 +/− 0.0b

Question: And the “Efficacy (from AUDPC, percentage of the untreated control)” value [5, 8]?
Answer: 100%

Question: What about the AUDPC [5, 8] of the same molecule?
Answer: 0.0 +/− 0.0b

Question: What about the “Disease Severity Intensity” value [6, 9] of the same molecule?
Answer: No disease

Question: What about the “Disease Severity Intensity” value [6, 10] of the same molecule?
Answer: No disease

Question: What about the “Disease Severity Intensity” value ([6]; 21 dpi, rate N (g a.i./ha): ADF-16 100, penthiopyrad 200, metconazole 90, tebuconazole 250, control 77.2) of the same molecule?
Answer: 1.9 +/− 0.7cd %

Question: What about the “Disease Severity Intensity” value ([6]; 21 dpi, rate N/2.5 (g a.i./ha): ADF-16 40, penthiopyrad 80, metconazole 36, tebuconazole 100, control 77.2) of the same molecule?
Answer: 15.1 +/− 2.8b %

Question: And the “Disease Severity Intensity” value ([6]; 28 dpi, rate N (g a.i./ha): ADF-16 100, penthiopyrad 200, metconazole 90, tebuconazole 250, control 95.5)?
Answer: 33.0 +/− 3.6d %

Question: What about the “Disease Severity Intensity” value ([6]; 28 dpi, rate N/2.5 (g a.i./ha): ADF-16 40, penthiopyrad 80, metconazole 36, tebuconazole 100, control 95.5) of the same molecule?
Answer: 78.0 +/− 5.0b %
